Reference: ChEMBL document CHEMBL3046632 (Med Chem Res, 2004)
pEC50, pIC50, pKi: −log10 of the molar value.

Experiments:
D(3) dopamine receptor = D(3) dopamine receptor (Rattus norvegicus, UniProt P19020); test: biochemical
[1] = molecular target: Dopamine receptor D2 and D3 (Rattus norvegicus, UniProt P19020+P61169); test: Agonist activity at Rattus norvegicus (rat) dopamine D2/D3 receptor transfected in african green monkey COS7 cells assessed as inhibition of forskolin-stimulated adenylyl cyclase activity after 10 min; type: functional, cell-based; settings: cos-7
D(2) dopamine receptor = D(2) dopamine receptor (Rattus norvegicus, UniProt P61169); test: Agonist activity at Rattus norvegicus (rat) dopamine D2 receptor transfected in african green monkey COS7 cells assessed as inhibition of forskolin-stimulated adenylyl cyclase activity after 10 min; type: functional, cell-based, COS-7
D(2) dopamine receptor, sequence (P61169 whole entry): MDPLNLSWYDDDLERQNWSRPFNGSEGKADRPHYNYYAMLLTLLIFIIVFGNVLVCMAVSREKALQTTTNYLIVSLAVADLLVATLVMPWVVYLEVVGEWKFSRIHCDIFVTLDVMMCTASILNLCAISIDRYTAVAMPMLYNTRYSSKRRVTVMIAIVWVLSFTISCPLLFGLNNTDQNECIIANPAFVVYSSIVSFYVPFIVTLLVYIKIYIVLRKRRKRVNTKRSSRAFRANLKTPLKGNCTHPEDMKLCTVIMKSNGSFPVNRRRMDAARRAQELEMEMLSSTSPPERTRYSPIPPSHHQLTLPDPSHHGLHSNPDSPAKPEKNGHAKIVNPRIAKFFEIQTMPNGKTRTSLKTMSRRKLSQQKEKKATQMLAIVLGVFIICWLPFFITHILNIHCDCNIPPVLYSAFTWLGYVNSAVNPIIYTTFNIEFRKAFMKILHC

D(3) dopamine receptor, sequence (P19020 whole entry): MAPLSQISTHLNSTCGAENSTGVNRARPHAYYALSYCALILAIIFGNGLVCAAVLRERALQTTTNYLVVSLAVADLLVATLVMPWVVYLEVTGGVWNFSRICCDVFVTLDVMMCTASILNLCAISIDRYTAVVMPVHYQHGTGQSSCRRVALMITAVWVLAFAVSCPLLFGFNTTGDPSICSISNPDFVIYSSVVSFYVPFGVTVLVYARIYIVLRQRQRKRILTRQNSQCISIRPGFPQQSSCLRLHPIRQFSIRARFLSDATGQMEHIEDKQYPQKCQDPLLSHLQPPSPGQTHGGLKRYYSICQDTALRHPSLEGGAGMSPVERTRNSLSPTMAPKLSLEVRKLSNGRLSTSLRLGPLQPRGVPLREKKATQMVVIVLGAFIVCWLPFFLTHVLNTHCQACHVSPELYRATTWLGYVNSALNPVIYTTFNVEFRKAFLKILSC

pKi (D(3) dopamine receptor) | EC50 [1] | SMILES | pIC50 (D(3) dopamine receptor) | pEC50 (D(2) dopamine receptor)
8.62 | – | N#Cc1ccc2c(c1)[C@H]1CN(CCCCNC(=O)c3ccc(-c4ccccc4)cc3)C[C@@H]1CO2 | – | –
– | 1.5 nM | CCCN1CCO[C@@H]2c3cc(C(N)=O)ccc3CC[C@H]21 (relative stereo) | 8.38 | 7.31
– | – | CCCN[C@H]1CCc2nc(N)sc2C1 [PRAMIPEXOLE] | 8.11 | –
– | – | CCCN(CCC)CCc1cccc2c1CC(=O)N2 [ROPINIROLE] | – | 7.12
